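Compound exposure: 48 hours, 5 concentrations, 96-well plates. GI50 is the concentration that inhibits growth by half. TGI denotes the concentration required for complete inhibition of growth.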 Bounds are passed on as bounds.

Consider 15 compounds from PubChem BioAssay (NCI).

Common to all, as to assay: growth of human tumour cells (NCI), 48 h
For test [1], the system named is SK-MEL-28 melanoma.
Test [2] deals with SF-539 CNS.
Test [3] relates to MOLT-4 leukemia.
Test [4] relates to HOP-92 NSCLC.
In test [5] the test system is SN12C renal.
The test system of test [6] is K-562 leukemia.
The subject of test [7] is NCI-H226 lung.
In test [8] the test system is HS 578T breast.
The test system of test [9] is SNB-75 CNS.
Test [10] deals with UACC-257 melanoma.

Consider `c1ccc2[nH]c(-c3ccc(N4CCN(c5ccc(-c6nc7ccccc7[nH]6)cc5)CC4)cc3)nc2c1`, for which the GI50 was 43 µM in test [1]; over 100 µM in test [2]; 34.9 µM in [3]; over 100 µM in test [4]; over 100 µM in test [5]; 38.4 µM in [6]. The GI50 in [7] was 24.2 µM; in test [8], over 100 µM; in test [9], over 100 µM; in [10] it was over 100 µM. The TGI in test [1], in test [2], in test [3], in test [4], in test [5] and in test [6] was over 100 µM each time. The TGI in [7], in test [8], in [9] and in test [10] was over 100 µM throughout.

Consider `CC12CCC(=O)C=C1CCC1C2CCC2(C)C(C(=O)Cn3cnc4c(=S)nc[nH]c43)CCC12` (stereo not given), for which the TGI in [1] was over 100 µM; in [2], over 100 µM; in test [3], over 100 µM; in [4], 37.7 µM; in test [5], over 100 µM; in test [6] it was over 100 µM. Also, the TGI in test [7] was over 100 µM; in test [8] it was over 100 µM; in test [9] it was 36.8 µM; in [10] it was over 100 µM.

As for `CC[C@H](Nc1nc(N)nc(C)c1C#N)c1nc2cccc(CN(C)c3ncc(C(=O)NO)cn3)c2c(=O)n1-c1ccccc1`, the GI50 in [1] was 0.604 µM; in test [2] it was 0.591 µM; in test [3], 0.204 µM; in [4], 0.204 µM; in test [5], 1.11 µM; in test [6] it was 0.39 µM. In addition, the GI50 in test [7] is 1.18 µM; in test [8], 0.474 µM; in [9] it was 0.244 µM; in test [10], 0.36 µM. In addition, the TGI in [1] was 3.16 µM; in test [2], 6.12 µM; in test [3], over 50 µM; in test [4] it was 1.52 µM; in test [5], 6.03 µM; in test [6] it was over 50 µM. The TGI was 7.07 µM in [7], over 11.1 µM in test [8], 1.82 µM in test [9] and 3.11 µM in [10].

For `C[C@]12CC[C@H]3[C@@H](CCC4=CC(=O)CC[C@@H]43)[C@@H]1CC[C@@H]2OC(=O)N(CCCl)N=O`, the GI50 in test [1] is 11.6 µM; in [2], 0.0959 µM; in test [3] it was 0.716 µM; in test [4], 0.391 µM; in test [5], 1.69 µM; in test [6], 2.9 µM. The GI50 in test [7] was 14 µM; in test [8] it was 5.2 µM; in test [9] it was 0.317 µM; in test [10] it was 10.7 µM. For the same compound, the TGI in test [1] is 26.1 µM; in test [2], 10.6 µM; in test [3], over 32.6 µM; in test [4] it was 17.5 µM; in [5], 21.4 µM; in test [6] it was 56 µM. Also, the TGI was determined as 34.1 µM in test [7], 34.2 µM in test [8], 16.4 µM in test [9] and 24.8 µM in [10].

For `CC(=O)OC1c2ccccc2CC2(OC(C)=O)c3ccccc3C12` (stereo not given), the TGI in test [1], in test [2], in test [3], in [4], in test [5] and in test [6] was over 100 µM each time. For the same compound, the TGI in [7], in [8], in test [9] and in test [10] was over 100 µM throughout.

Consider `N#CSc1ncnc2nc[nH]c12`, for which the GI50 in test [1] was 44.4 µM; in [2], 4.14 µM; in [3] it was 4.28 µM; in test [4], 6.91 µM; in [5] it was 51.7 µM; in test [6], 1.24 µM. The GI50 in test [7] is over 100 µM; in test [8], 4.79 µM; in test [9], 7.19 µM; in [10] it was 26.2 µM. For the same compound, the TGI is over 100 µM in test [1]; over 65.9 µM in test [2]; over 100 µM in test [3]; over 94 µM in [4]; over 100 µM in [5]; over 100 µM in test [6]. In addition, the TGI in [7] is over 100 µM; in [8], over 92.6 µM; in test [9] it was over 100 µM; in [10], over 100 µM.

`O=C(O)[C@@H]1C2CC([C@@H]1C(=O)O)[C@H](N1C(=O)CCC1=O)[C@@H]2Br` (stereo not given in full): the TGI in [1], in test [2], in [3], in test [4], in test [5] and in test [6] was over 100 µM in each case. Also, the TGI in [7], in [8], in [9] and in test [10] was over 100 µM throughout.

In the case of `Nc1nc(/C=C\c2ccc([N+](=O)[O-])o2)nc(N2CCN(c3ccccc3)CC2)n1`, the GI50 is 14.1 µM in test [1]; 16.7 µM in [2]; 8.39 µM in test [3]; 6.86 µM in [4]; 11.1 µM in test [5]; 4.63 µM in test [6]. Moreover, the GI50 is 17.5 µM in test [7], 25.3 µM in test [8], 20.9 µM in test [9] and 11.5 µM in test [10]. The TGI was 40.5 µM in test [1]; 34 µM in test [2]; over 100 µM in test [3]; 44.3 µM in test [4]; 43.9 µM in test [5]; 26.7 µM in [6]. The TGI was 52.8 µM in test [7], 93 µM in [8], 47 µM in test [9] and 41.3 µM in test [10].

As to `O=S(=O)(c1ccc(NC(=S)NCc2cccnc2)cc1)N1CCCCC1`, the GI50 was 50.4 µM in test [1]; 0.446 µM in test [2]; 40.3 µM in test [3]; 11.1 µM in [4]; 0.21 µM in [5]; 1.38 µM in test [6]. The GI50 is 39.5 µM in test [7], 8.65 µM in [8], 25.6 µM in test [9] and 42.6 µM in [10]. In addition, the TGI in test [1], in [2], in test [3], in test [4], in test [5] and in test [6] was over 100 µM each time. For the same compound, the TGI in test [7], in test [8], in test [9] and in test [10] was over 100 µM throughout.

With `CCc1c(C)[nH]c(/C=C2\N=C(c3ccc[nH]3)C=C2OC)c1C`, the GI50 in [1] is 0.365 µM; in test [2], 0.448 µM; in test [3], under 0.0394 µM; in [4], 0.135 µM; in [5], 0.627 µM; in [6], 0.805 µM. Moreover, the GI50 is 0.812 µM in test [7], 0.164 µM in [8], 0.269 µM in test [9] and 0.432 µM in test [10]. Also, the TGI in test [1] is 1.87 µM; in test [2] it was 2.16 µM; in test [3] it was 4.18 µM; in test [4], 0.682 µM; in test [5], 15.6 µM; in [6] it was 8.97 µM. The TGI in test [7] was 8.83 µM; in test [8] it was 2.3 µM; in test [9], 0.71 µM; in [10], 2.65 µM.

As to `C=C(C)[C@@H]1CC[C@]2(C(=O)NCCCN)CC[C@]3(C)[C@H](CC[C@@H]4[C@@]5(C)CC[C@H](O)C(C)(C)[C@@H]5CC[C@]43C)[C@@H]12`, the GI50 is 22.1 µM in test [1]; 17.9 µM in [2]; 12.9 µM in test [3]; 10.8 µM in test [4]; 20.8 µM in test [5]; 9.84 µM in test [6]. Further, the GI50 is 21.2 µM in test [7], 40.5 µM in test [8], 32.1 µM in [9] and 20.6 µM in test [10]. For the same compound, the TGI was determined as 57.8 µM in test [1]; 52 µM in test [2]; 52.8 µM in test [3]; 35.4 µM in test [4]; 82.6 µM in test [5]; 31.3 µM in test [6]. The TGI was over 100 µM in test [7], over 100 µM in [8], over 100 µM in [9] and 55.3 µM in test [10].

On to `CCCN1C(=O)/C(=c2\sc3n(c2=O)C2C(NN=3)N(CC)C(=O)N2CC)c2ccccc21` (stereo not given), for which the GI50 is 1.18 µM in test [1]; 0.258 µM in [2]; 0.811 µM in test [3]; 0.885 µM in test [4]; 1.26 µM in test [5]; 0.374 µM in test [6]. For the same compound, the GI50 in [7] is 1.45 µM; in [8], 0.386 µM; in test [9], 0.199 µM; in test [10], 1.22 µM. Further, the TGI in test [1] is 29.1 µM; in [2], 0.802 µM; in test [3], over 100 µM; in test [4], 16.3 µM; in [5], 20.1 µM; in test [6] it was over 100 µM. In addition, the TGI in test [7] is over 33 µM; in test [8], over 39.8 µM; in [9], 0.79 µM; in test [10] it was 14 µM.

As for `COc1cc2nc(Cl)nc(Nc3cccc(C(=O)/C=C/c4ccccc4)c3)c2cc1OC`, the GI50 in test [1] is 5.03 µM; in [2], 3.82 µM; in [3] it was 2.77 µM; in test [4], 2.09 µM; in [5] it was 3.98 µM; in test [6], 1.74 µM. The GI50 is 5.81 µM in test [7], 4.19 µM in [8], 2.06 µM in test [9] and over 31.2 µM in [10]. Besides, the TGI in test [1] was over 100 µM; in test [2], 19.2 µM; in test [3], over 100 µM; in test [4], 8.52 µM; in test [5], 41.1 µM; in test [6], over 100 µM. The TGI in test [7] was over 100 µM; in test [8] it was over 64.1 µM; in test [9], 8.61 µM; in test [10] it was over 100 µM.

With `NC(=O)[C@H]1CCN(c2ncnc(N)c2F)C[C@@H]1N1CCC[C@@H](Nc2cc(Cl)cc(C(F)(F)F)c2)C1=O`, the GI50 is 18.5 µM in test [1]; 14.5 µM in [2]; 4.93 µM in test [3]; 11.2 µM in test [4]; 10.9 µM in test [5]; 18.4 µM in test [6]. Also, the GI50 in test [7] was 18.4 µM; in [8], 15.5 µM; in [9], 12.6 µM; in [10], 20.3 µM. Besides, the TGI in test [1] was 44.3 µM; in test [2], 33.2 µM; in test [3], 65.9 µM; in [4], 40.7 µM; in [5] it was over 100 µM; in test [6], over 100 µM. The TGI in [7] is 70 µM; in test [8], over 100 µM; in [9], 39.1 µM; in test [10], 59.7 µM.

As for `CCn1c(-c2nonc2N)nc2cncc(C(=O)N3CCNCC3)c21`, the GI50 in test [1], in test [2], in test [3], in test [4], in test [5] and in [6] was over 25 µM in each case. Also, the GI50 in test [7], in [8], in [9] and in test [10] was over 25 µM in each case. For the same compound, the TGI in [1], in test [2], in test [3], in [4], in test [5] and in test [6] was over 25 µM throughout. Also, the TGI in [7], in test [8], in [9] and in test [10] was over 25 µM in each case.
